Like-named read-outs stand apart in the source and are kept apart here.

For one assay, the target named is T1, human S1P3 receptor (Homo sapiens, UniProt Q99500).
T1 construct: expressed in transfected cells
The assay is described as follows: FLIPR Ca+2 assay: ability to activate or block activation of the human S1P3 receptor in T24 cells. In kind it is cell-based. The protocol:
Compounds were assessed for their ability to activate or block activation of the human S1P3 receptor in T24 cells stably expressing the human S1P3 receptor. Ten thousand cells/well were plated into 384-well poly-D-lysine coated plates one day prior to use. The growth media for the S1P3 receptor expressing cell line was McCoy's 5A medium supplemented with 10% charcoal-treated fetal bovine serum (FBS), 1% antibiotic-antimycotic and 400 μg/ml geneticin. On the day of the experiment, the cells were washed twice with Hank's Balanced Salt Solution supplemented with 20 mM HEPES (HBSS/Hepes buffer). The cells were then dye loaded with 2 uM Fluo-4 diluted in the HBSS/Hepes buffer with 1.25 mM Probenecid and incubated at 37° C. for 40 minutes. Extracellular dye was removed by washing the cell plates four times prior to placing the plates in the FLIPR (Fluorometric Imaging Plate Reader, Molecular Devices). Ligands were diluted in HBSS/Hepes buffer and prepared in 384-well microplates. The positive control, Sphingosine-1-Phosphate (SIP), was diluted in HBSS/Hepes buffer with 4 mg/ml fatty acid free bovine serum albumin. The FLIPR transferred 12.5 μl from the ligand microplate to the cell plate and took fluorescent measurements for 75 seconds, taking readings every second, and then for 2.5 minutes, taking readings every 10 seconds. Drugs were tested over the concentration range of 0.61 nM to 10,000 nM. Data for Ca^+2 responses were obtained in arbitrary fluorescence units and not translated into Ca^+2 concentrations. IC50 values were determined through a […] analysis using the Levenburg Marquardt algorithm.

The subject of a further assay is perfused porcine eyes. The following applies: by altering paracellular permeability, IOVS 45, 2263, 2004; cited from earlier work.
The mark [1] stands for this setting: T24 cells stably expressing human S1P3, antagonist activity, tested 0.61 nM to 10,000 nM, read-out: S1P3 IC50.
Where [2] appears, read: T-24, T24 cells stably expressing human S1P3, antagonist activity, value in parentheses, read-out: S1P3 (% eff.).

T1 sequence (Q99500 whole entry): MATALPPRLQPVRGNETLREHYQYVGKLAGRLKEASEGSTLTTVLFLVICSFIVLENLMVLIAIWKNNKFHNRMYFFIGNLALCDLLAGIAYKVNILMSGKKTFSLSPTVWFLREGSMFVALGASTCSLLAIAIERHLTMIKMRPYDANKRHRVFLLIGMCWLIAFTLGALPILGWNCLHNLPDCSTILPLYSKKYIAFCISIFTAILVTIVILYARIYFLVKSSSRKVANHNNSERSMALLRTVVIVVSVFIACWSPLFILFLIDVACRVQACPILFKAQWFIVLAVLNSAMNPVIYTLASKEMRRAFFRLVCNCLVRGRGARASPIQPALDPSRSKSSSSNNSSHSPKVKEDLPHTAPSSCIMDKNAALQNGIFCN

In general, IC50 refers to the concentration needed to halve the response being measured. `Cc1c(C(=O)NCc2cc(F)cc(F)c2)c2cc(O)ccc2n1Cc1ccccc1` [Compound 3, 1-Benzyl-5-hydroxy-2-methyl-1H-indole-3-carboxylic Acid, 3,5-Difluorobenzylamide]: inhibition at human S1P3 receptor was half-maximal at 510 nM (IC50). The Emax at human S1P3 receptor (T-24, read-out: S1P3 (% eff.)) was determined as 53%.

On human S1P3 receptor, `Cc1c(C(=O)NCc2ccc(F)c(F)c2)c2cc(O)ccc2n1Cc1cccs1` [Compound 4, 5-Hydroxy-2-methyl-1-thiophen-2-ylmethyl-1H-indole-3-carboxylic Acid, 3,4-Difluorobenzylamide] displayed an IC50 of 1700 nM. Besides, the Emax at human S1P3 receptor (T-24, read-out: S1P3 (% eff.)) turned out to be 66%.

In the case of `CCCCn1c(C)c(C(=O)NCc2cc(F)cc(F)c2)c2cc(O)ccc21` [Compound 6, 1-Butyl-5-hydroxy-2-methyl-1H-indole-3-carboxylic Acid, 3,5-Difluoro-benzylamide], at human S1P3 receptor, the half-maximal inhibitory concentration (IC50) is 2500 nM. Moreover, the Emax at human S1P3 receptor (T-24, read-out: S1P3 (% eff.)) was found to be 55%.

Consider `Cc1c(C(=O)NCc2ccc(F)c(F)c2)c2cc(O)ccc2n1Cc1ccco1` [Compound 9, 1-Furan-2-ylmethyl-5-hydroxy-2-methyl-1H-indole-3-carboxylic Acid, 3,4-Difluorobenzylamide], for which the IC50 against human S1P3 receptor is 2900 nM. Also, the Emax on human S1P3 receptor (T-24, read-out: S1P3 (% eff.)) was found to be 97%.

As to `Cc1c(C(=O)NCc2cc(F)cc(F)c2)c2cc(O)ccc2n1Cc1cccs1` [Compound 11, 5-Hydroxy-2-methyl-1-thiophen-2-ylmethyl-1H-indole-3-carboxylic Acid, 3,5-Difluorobenzylamide], 1800 nM corresponded to half-maximal inhibition on human S1P3 receptor (IC50). At human S1P3 receptor (T-24, read-out: S1P3 (% eff.)), the Emax stood at 67%.

`Cc1c(C(=O)NCc2cc(F)cc(F)c2)c2cc(O)ccc2n1Cc1ccco1` [Compound 12, 1-Furan-2-ylmethyl-5-hydroxy-2-methyl-1H-indole-3-carboxylic Acid 3,5-Difluorobenzylamide] registered an IC50 against human S1P3 receptor of 950 nM. Further, the Emax on human S1P3 receptor (T-24, read-out: S1P3 (% eff.)) turned out to be 77%.

On human S1P3 receptor, `Cc1c(C(=O)NCc2ccc(F)c(F)c2)c2cc(O)ccc2n1Cc1ccccc1` [Compound 13, 1-Benzyl-5-hydroxy-2-methyl-1H-indole-3-carboxylic Acid, 3,4-Difluoro-benzylamide] came in with an IC50 of 1500 nM. The Emax on human S1P3 receptor (T-24, read-out: S1P3 (% eff.)) is 84%.

For the molecule `Cc1c(C(=O)NCc2cccc(F)c2)c2cc(O)ccc2n1Cc1cccs1` [Compound 14, 5-Hydroxy-2-methyl-1-thiophen-2-ylmethyl-1H-indole-3-carboxylic Acid, 3-Fluorobenzylamide], the IC50 on human S1P3 receptor turned out to be 3200 nM. Also, the Emax on human S1P3 receptor (T-24, read-out: S1P3 (% eff.)) was 85%.

The molecule `Cc1c(C(=O)NCc2ccccc2)c2cc(O)ccc2n1Cc1cccs1` [Compound 15, 5-Hydroxy-2-methyl-1-thiophen-2-ylmethyl-1H-indole-3-carboxylic Acid, Benzylamide] had an IC50 on human S1P3 receptor of 1600 nM. Also, the Emax on human S1P3 receptor (T-24, read-out: S1P3 (% eff.)) stood at 48%.

`COc1cccc(CNC(=O)c2c(C)n(Cc3cccs3)c3ccc(O)cc23)c1` [Compound 17, 5-Hydroxy-2-methyl-1-thiophen-2-ylmethyl-1H-indole-3-carboxylic Acid, 3-Methoxybenzylamide] displayed an IC50 against human S1P3 receptor of 910 nM. In addition, the Emax at human S1P3 receptor (T-24, read-out: S1P3 (% eff.)) is 33%.

Turning to `CCCCn1c(C)c(C(=O)NCc2cccc(OC)c2)c2cc(O)ccc21` [Compound 18, 1-Butyl-5-hydroxy-2-methyl-1H-indole-3-carboxylic Acid, 3-Methoxy-benzylamide], at human S1P3 receptor, the IC50 turned out to be 5100 nM. Further, on human S1P3 receptor (T-24, read-out: S1P3 (% eff.)), the Emax is 42%.

In the case of `Cc1c(C(=O)NCc2ccc(F)cc2)c2cc(O)ccc2n1Cc1cccs1` [Compound 19, 5-Hydroxy-2-methyl-1-thiophen-2-ylmethyl-1H-indole-3-carboxylic Acid, 4-Fluorobenzylamide], on human S1P3 receptor, the IC50 is 2700 nM. Moreover, the Emax at human S1P3 receptor (T-24, read-out: S1P3 (% eff.)) is 72%.

As for `Cc1ccc(CNC(=O)c2c(C)n(Cc3cccs3)c3ccc(O)cc23)cc1` [Compound 20, 5-Hydroxy-2-methyl-1-thiophen-2-ylmethyl-1H-indole-3-carboxylic Acid, 4-Methylbenzylamide], half-maximal inhibition on human S1P3 receptor (IC50) was put at 2500 nM. Besides, the Emax on human S1P3 receptor (T-24, read-out: S1P3 (% eff.)) stood at 71%.

The molecule `Cc1c(C(=O)NCc2cccc(Cl)c2)c2cc(O)ccc2n1Cc1cccs1` [Compound 21, 5-Hydroxy-2-methyl-1-thiophen-2-ylmethyl-1H-indole-3-carboxylic Acid, 3-Chlorobenzylamide] showed an IC50 against human S1P3 receptor of 1200 nM. Moreover, the Emax at human S1P3 receptor (T-24, read-out: S1P3 (% eff.)) was found to be 38%.

In turn, `Cc1c(C(=O)NCc2ccc(Cl)cc2)c2cc(O)ccc2n1Cc1cccs1` [Compound 22, 5-Hydroxy-2-methyl-1-thiophen-2-ylmethyl-1H-indole-3-carboxylic Acid, 4-Chlorobenzylamide] displayed an IC50 at human S1P3 receptor of 2500 nM. Further, at human S1P3 receptor (T-24, read-out: S1P3 (% eff.)), the Emax amounted to 83%.

With `COc1ccccc1CNC(=O)c1c(C)n(Cc2cccs2)c2ccc(O)cc12` [Compound 23, 5-Hydroxy-2-methyl-1-thiophen-2-ylmethyl-1H-indole-3-carboxylic Acid, 2-methoxybenzylamide], at human S1P3 receptor, the IC50 is 2400 nM. Besides, the Emax at human S1P3 receptor (T-24, read-out: S1P3 (% eff.)) is 23%.

In turn, `CCc1c(C(=O)NCc2ccc(F)c(F)c2)c2cc(O)ccc2n1Cc1ccccc1` [Compound 25, 1-Benzyl-2-ethyl-5-hydroxy-1H-indole-3-carboxylic Acid, 3,4-Difluoro-benzylamide] returned an IC50 against human S1P3 receptor of 700 nM. Further, the Emax at human S1P3 receptor (T-24, read-out: S1P3 (% eff.)) was 98%.

On to `CCc1c(C(=O)NCc2cccc(OC)c2)c2cc(O)ccc2n1Cc1ccccc1` [Compound 26, 1-Benzyl-2-ethyl-5-hydroxy-1H-indole-3-carboxylic Acid, 3-Methoxy-benzylamide], for which the IC50 against human S1P3 receptor came to 1900 nM. The Emax on human S1P3 receptor (T-24, read-out: S1P3 (% eff.)) came to 97%.

For the molecule `CC(C)c1c(C(=O)NCc2ccc(F)c(F)c2)c2cc(O)ccc2n1Cc1ccccc1` [Compound 28, 1-Benzyl-5-hydroxy-2-isopropyl-1H-indole-3-carboxylic Acid, 3,4-Difluorobenzamide], at human S1P3 receptor, the IC50 is 55 nM. Further, the Emax on human S1P3 receptor (T-24, read-out: S1P3 (% eff.)) turned out to be 98%.

For `Cc1c(C(=O)NCc2ccc(F)c(F)c2)c2cc(O)ccc2n1-c1ccccc1` [Compound 29, 5-Hydroxy-2-methyl-1-phenyl-1H-indole-3-carboxylic Acid 3,4-Difluoro-benzylamide], at human S1P3 receptor (setting [1]), the IC50 is 9700 nM. Also, the Emax on human S1P3 receptor (setting [2]) was 76%.

In the case of `Cc1c(C(=O)NCc2ccc(F)c(F)c2)c2cc(O)ccc2n1-c1ccccn1` [Compound 30, 5-Hydroxy-2-methyl-1-pyridin-2-yl-1H-indole-3-carboxylic Acid 3,4-Difluoro-benzylamide], the IC50 at human S1P3 receptor (setting [1]) was found to be 1500 nM. Besides, the Emax at human S1P3 receptor (setting [2]) came out at 23%.

Turning to `Cc1c(C(=O)NCc2ccc(F)c(F)c2)c2cc(O)ccc2n1-c1cccs1` [Compound 31, 5-Hydroxy-2-methyl-1-thiophen-2-yl-1H-indole-3-carboxylic Acid 3,4-Difluorobenzylamide], on human S1P3 receptor (setting [1]), the IC50 was 2500 nM. Moreover, the Emax on human S1P3 receptor (setting [2]) is 81%.

`CCc1c(C(=O)NCc2cc(F)cc(F)c2)c2cc(O)ccc2n1Cc1ccccc1` [Compound 32, 1-Benzyl-2-ethyl-5-hydroxy-1H-indole-3-carboxylic Acid 3,5-Difluoro-benzylamide] gave an IC50 on human S1P3 receptor of 280 nM. Moreover, the Emax at human S1P3 receptor (T-24, read-out: S1P3 (% eff.)) stood at 97%.

Take `CC(C)c1c(C(=O)NCc2cc(F)cc(F)c2)c2cc(O)ccc2n1Cc1ccccc1` [Compound 33, 1-Benzyl-5-hydroxy-2-isopropyl-1H-indole-3-carboxylic Acid, 3,5-difluorobenzylamide]: at human S1P3 receptor, the IC50 came out at 110 nM. Further, at human S1P3 receptor (T-24, read-out: S1P3 (% eff.)), the Emax is 99%.

On human S1P3 receptor, `COc1cccc(CNC(=O)c2c(C(C)C)n(Cc3ccccc3)c3ccc(O)cc23)c1` [Compound 34, 1-Benzyl-5-hydroxy-2-isopropyl-1H-indole-3-carboxylic Acid, 3-methoxybenzylamide] returned an IC50 of 410 nM. For the same molecule, at human S1P3 receptor (T-24, read-out: S1P3 (% eff.)), the Emax came to 98%.

Regarding `O=C(NCc1cc(F)cc(F)c1)c1c(-c2ccccc2)n(Cc2ccccc2)c2ccc(O)cc12` [Compound 48, 1-Benzyl-5-hydroxy-2-phenyl-1H-indole-3-carboxylic Acid, 3,5-Difluoro-benzylamide], the IC50 at human S1P3 receptor turned out to be 880 nM. Moreover, at human S1P3 receptor (T-24, read-out: S1P3 (% eff.)), the Emax was 98%.

Regarding `CCCCCCCCCCCCC/C=C/[C@@H](O)[C@@H](N)COP(=O)(O)O` [Compound S1P, Sphingosine-1-Phosphate], the “decrease of outflow facility” value in the assay with perfused porcine eyes is over 30%.

These data come from US7737173B2, “Indole-3-carboxylic acid amide, ester, thioamide and thiol ester compounds bearing aryl or heteroaryl groups having sphingosine-1-phosphate (S1P) receptor antagonist biological activity” (Allergan, Inc., priority 2006, dated 2010).
